Among the data in ChEMBL document CHEMBL4825771 (ACS Med Chem Lett, 2021) are EC50, microsomal CLint and half-life values, retold here.

The EC50 is the concentration that produces a half-maximal response. Low values mean a more potent agent, high ones a less potent agent. By half-life is commonly meant the time needed for the level to fall by half in the phase considered.

The target in series [1] is 5-hydroxytryptamine receptor 2A (Homo sapiens, UniProt P28223). In words: Displacement of [3H]-ketanserin from human 5-HT2A receptor incubated for 90 mins by scintillation counting analysis.
Series [2] can be described thus: Metabolic stability in human liver microsomes assessed as intrinsic clearance measured after 60 mins by LC-MS/MS analysis. The series is classed as ADME, Microsome. Conditions: read-out: CLH. (In general: Liver microsomes are a subcellular fraction often used to study metabolism.)
The nature of series [3]: Metabolic stability in human liver microsomes assessed as half life measured after 60 mins by LC-MS/MS analysis. Format: ADME, Microsome.

Chain of 5-hydroxytryptamine receptor 2A (P28223 whole entry): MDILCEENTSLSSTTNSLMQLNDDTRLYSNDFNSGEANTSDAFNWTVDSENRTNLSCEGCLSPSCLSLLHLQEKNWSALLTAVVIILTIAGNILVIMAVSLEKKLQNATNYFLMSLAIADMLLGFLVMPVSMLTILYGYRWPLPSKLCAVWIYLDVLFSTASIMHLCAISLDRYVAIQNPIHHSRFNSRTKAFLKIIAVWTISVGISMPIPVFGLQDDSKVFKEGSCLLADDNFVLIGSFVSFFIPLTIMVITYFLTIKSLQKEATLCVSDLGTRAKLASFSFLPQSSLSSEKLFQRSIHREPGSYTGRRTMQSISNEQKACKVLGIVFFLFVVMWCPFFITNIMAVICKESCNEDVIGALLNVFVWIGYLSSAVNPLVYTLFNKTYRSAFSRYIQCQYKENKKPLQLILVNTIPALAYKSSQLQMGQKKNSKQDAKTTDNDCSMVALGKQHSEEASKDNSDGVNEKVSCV

The compound `[2H]C([2H])([2H])N(C([2H])([2H])[2H])C([2H])([2H])C([2H])([2H])c1c[nH]c2cccc(OC(=O)CCCCCCCC/C=C\C/C=C\CCCCC)c12` showed an EC50 in series [1] of 965 nM. The microsomal CLint in series [2] turned out to be 10.4 µL/min/mg. In series [3], the half-life at 2 µM was determined as 2.23 h.
